Columns and labels:
HepG2 = assay: Cytotoxicity against human HepG2 cells assessed as growth inhibition measured after 3 days by MTT assay; assay type: functional, cell-based; settings: HepG2, 72 h
KB = assay: Cytotoxicity against human KB cells assessed as growth inhibition measured after 3 days by MTT assay; assay type: functional, cell-based; settings: 72 h

With CC(=O)Nc1cccc(-c2cn(CC(Cn3c4c(c5ccccc5c3=O)C(=O)c3ccccc3-4)OC(C)=O)nn2)c1 (stereo unspecified) the IC50 (HepG2) was greater than 234 µM and the IC50 (KB) was greater than 234 µM.
In the case of O=C(NCc1cn(CC(O)Cn2c3c(c4ccccc4c2=O)C(=O)c2ccccc2-3)nn1)c1ccc(Br)cc1 (stereo unspecified), the IC50 (HepG2) is reported as 43.8 µM and the IC50 (KB) is reported as 56.7 µM.
Cc1cn([C@H]2C[C@H](n3cc(COC(=O)Cn4c5c(c6ccccc6c4=O)C(=O)c4ccccc4-5)nn3)[C@@H](CO)O2)c(=O)[nH]c1=O showed an IC50 (HepG2) of 26.2 µM and an IC50 (KB) of 26.2 µM.
Compound CC(C)C(=O)NCc1cn(CC(O)Cn2c3c(c4ccccc4c2=O)C(=O)c2ccccc2-3)nn1 (stereo unspecified) has an IC50 (HepG2) of 22.1 µM and an IC50 (KB) of 123 µM.
For [N-]=[N+]=NCC(O)Cn1c2c(c3ccccc3c1=O)C(=O)c1ccccc1-2 (stereo unspecified), the IC50 (HepG2) was 45 µM and the IC50 (KB) was 42 µM.
For Cc1cn([C@H]2C[C@H](n3cc(COC(=O)[C@H](CC(C)C)n4c5c(c6ccccc6c4=O)C(=O)c4ccccc4-5)nn3)[C@@H](CO)O2)c(=O)[nH]c1=O, the IC50 (HepG2) was 2.25 µM and the IC50 (KB) was 0.75 µM.
Cc1cn([C@@H]2C[C@@H](n3cc(COC(=O)[C@@H](Cc4c[nH]c5ccccc45)n4c5c(c6ccccc6c4=O)C(=O)c4ccccc4-5)nn3)[C@H](CO)O2)c(=O)[nH]c1=O (single isomer, unassigned) gave an IC50 (HepG2) of 84.5 µM and an IC50 (KB) of 21.6 µM.
Cc1cn([C@H]2C[C@H](n3cc(COC(=O)[C@H](Cc4ccccc4)n4c5c(c6ccccc6c4=O)C(=O)c4ccccc4-5)nn3)[C@@H](CO)O2)c(=O)[nH]c1=O gave an IC50 (HepG2) of 0.48 µM and an IC50 (KB) of 0.49 µM.
Cc1c2ccncc2c(C)c2c1[nH]c1ccccc12 [ELLIPTECINE] gave an IC50 (HepG2) of 1.46 µM and an IC50 (KB) of 1.26 µM.
With Cc1ccc(S(=O)(=O)Nc2cccc(-c3cn(CC(O)Cn4c5c(c6ccccc6c4=O)C(=O)c4ccccc4-5)nn3)c2)cc1 (stereo unspecified) the IC50 (HepG2) was 69.8 µM and the IC50 (KB) was 89.9 µM.
For Cc1ccc(S(=O)(=O)NCc2cn(CC(O)Cn3c4c(c5ccccc5c3=O)C(=O)c3ccccc3-4)nn2)cc1 (stereo unspecified), the IC50 (HepG2) was 115 µM and the IC50 (KB) was 115 µM.
Work on O=C(OCc1cn(CC(O)Cn2c3c(c4ccccc4c2=O)C(=O)c2ccccc2-3)nn1)c1ccc(Br)cc1 (stereo unspecified) yielded an IC50 (HepG2) of 4.27 µM and an IC50 (KB) of 6.28 µM.
O=C1c2ccccc2-c2c1c1ccccc1c(=O)n2CC(O)Cn1cc(CO)nn1 (stereo unspecified) gave an IC50 (HepG2) of 0.74 µM and an IC50 (KB) of 2.86 µM.
CC(=O)NCc1cn(CC(O)Cn2c3c(c4ccccc4c2=O)C(=O)c2ccccc2-3)nn1 (stereo unspecified) showed an IC50 (HepG2) of 9.04 µM and an IC50 (KB) of 14.1 µM.
Compound O=C1c2ccccc2-c2c1c1ccccc1c(=O)n2CC(O)Cn1cc(CN2CCOCC2)nn1 (stereo unspecified) has an IC50 (HepG2) of 10.2 µM and an IC50 (KB) of 1.56 µM.
O=C1c2ccccc2-c2c1c1ccccc1c(=O)n2CC(O)Cn1cc(CBr)nn1 (stereo unspecified) gave an IC50 (HepG2) of 0.76 µM and an IC50 (KB) of 0.79 µM.
With NCc1cn(CC(O)Cn2c3c(c4ccccc4c2=O)C(=O)c2ccccc2-3)nn1 (stereo unspecified) the IC50 (HepG2) was 195 µM and the IC50 (KB) was 50 µM.
For COc1ccc(C(=O)OCc2cn(CC(O)Cn3c4c(c5ccccc5c3=O)C(=O)c3ccccc3-4)nn2)cc1 (stereo unspecified), the IC50 (HepG2) was 11.9 µM and the IC50 (KB) was 11.2 µM.
For O=C(OCc1cn(CC(O)Cn2c3c(c4ccccc4c2=O)C(=O)c2ccccc2-3)nn1)c1ccc(Cl)cc1 (stereo unspecified), the IC50 (HepG2) was 9.75 µM and the IC50 (KB) was 10.5 µM.
In the case of Cc1cn([C@H]2C[C@H](N=[N+]=[N-])[C@@H](CO)O2)c(=O)[nH]c1=O [ZIDOVUDINE], the IC50 (HepG2) is reported as greater than 479 µM.
With Cc1cn([C@H]2C[C@H](n3cc(Cn4c5c(c6ccccc6c4=O)C(=O)c4ccccc4-5)nn3)[C@@H](CO)O2)c(=O)[nH]c1=O the IC50 (HepG2) was 0.64 µM and the IC50 (KB) was 0.79 µM.
In the case of Cc1cn([C@H]2C[C@H](n3cc(COC(=O)[C@H](CO)n4c5c(c6ccccc6c4=O)C(=O)c4ccccc4-5)nn3)[C@@H](CO)O2)c(=O)[nH]c1=O, the IC50 (HepG2) is reported as 1.18 µM and the IC50 (KB) is reported as 0.35 µM.
Work on CC(=O)OCc1cn(CC(Cn2c3c(c4ccccc4c2=O)C(=O)c2ccccc2-3)OC(C)=O)nn1 (stereo unspecified) yielded an IC50 (HepG2) of 19 µM and an IC50 (KB) of 18.6 µM.
Nc1cccc(-c2cn(CC(O)Cn3c4c(c5ccccc5c3=O)C(=O)c3ccccc3-4)nn2)c1 (stereo unspecified) showed an IC50 (HepG2) of 32 µM and an IC50 (KB) of 15.3 µM.
In the case of Cc1ccc(NC(=O)c2ccc(Cn3cc(Cn4c5c(c6ccccc6c4=O)C(=O)c4ccccc4-5)nn3)cc2)cc1Nc1nccc(-c2cccnc2)n1, the IC50 (HepG2) is reported as 2.33 µM and the IC50 (KB) is reported as 1.56 µM.
O=C1c2ccccc2-c2c1c1ccccc1c(=O)n2Cc1cn(CC(O)Cn2c3c(c4ccccc4c2=O)C(=O)c2ccccc2-3)nn1 (stereo unspecified) showed an IC50 (HepG2) of 2.29 µM and an IC50 (KB) of 2.89 µM.
